The values below come from patent US20260159486A1, “BENZO[H]QUINAZOLINE-4-AMINE DERIVATIVES FOR THE TREATMENT OF CANCER” (Redona Therapeutics, Inc., priority 2021, published 2026).

Assay [1] addresses T1, recombinant human CLK3 (Homo sapiens, UniProt P49761).
T1 construct: purchased Thermo Fisher Scientific PV3826
In words: CLK3 kinase assay (LANCE Ultra). In kind it is biochemical. Particulars: CLK3 0.5 nM, ATP 300 μM, 3 hours at 30° C. In outline:
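Recombinant human CLK3 (0.5 nM) with ULight-CREBtide (50 nM) and 300 μM ATP, 3 h at 30 °C in kinase buffer; EDTA stop, then Eu-anti-phospho-CREB antibody (2 nM, 1 h RT), TR-FRET read at 665/620 nm. Inhibition normalized to DMSO and no-ATP wells; IC50 from 4-parameter fit, ten 1:3 concentrations in duplicate.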

For assay [2], the system named is phospho-SRSF6 in MDA-MB-468 cells. In words: Inhibition of phospho-SRSF6 levels in MDA-MB-468 cells (Western blot). It counts as cell-based. Particulars: Homo sapiens, 2 hours, compared to DMSO control. The method, then: FIG. 1: FIG. 1 provides a representative Western blot showing reduction of phosphorylated-SRSF6 (P—SRSF6) in MDA-MB 468 cells by compounds of the invention. GAPDH was probed for by Western blotting to control for equal protein loading and for normalization of samples. The numbers below the blots show percent inhibition of the P—SRSF6 signal at 100 nM (A) or 10 nM (B) compared to DMSO control.
Assessment of Inhibition of Phospho-SRSF6 Levels in MDA-MB-468 Cells
MDA-MB-468 cells (ATCC, HTB-132) were cultured in DMEM (BioConcept cat. no. 1-26F03) supplemented with 10% FBS (Sigma cat. no. F9665), […] (Sigma cat. no. S8636), 1% Penicillin-Streptomycin (BioConcept cat. no. 4-01FOO-H). When cells reached a density of 70% o in 6-well plates (TPP cat. no. 92006), they were treated either with the test compound vehicle DMSO, or with experimental compounds at a final concentration of either 10 or 100 nM for 2 hours. Thereafter, the culture medium was removed and cells were collected by scraping in Lysis Buffer (20 mM Tris HCl pH7.5, 150 mM NaCl, 1 mM EGTA, 1 mM EDTA, 1% o Triton and 1% o NP-40) containing protease and phosphatase inhibitors (Halt™ Protease&Phosphatase inhibitor cocktail 100× ThermioScientific cat. no. 1861281) and 1 mM PMSF (Fluka cat. no. 93482). Cleared lysates were stored in Eppendorfftubes at −80° C. until use, and protein concentration in lysates was determined using Pierce 660 nm Protein Assay Reagent (ThermioScientific cat. no. 22660). 20 μg proteins were diluted in 4× Laemmli buffer (Biorad cat. no. 161-0747) containing 10% beta-mercaptoethanol, separated by SDS-PAGE using 10% gels, and then transferred to PVDF membranes (Trans Blot Turbo Transfer Pack BioRad cat. no. 1704156) by Trans-Blot® Turbo™ System semidry blotting methodology (BioRad). Primary antibodies were incubated in TBS-0.1% Tween-20 buffer containing 3% BSA Bovine Albumin Fr.V (Millipore cat. no. 81-053-3) overnight at 4° C. The following primary antibodies were used: Mouse anti-phosphoepitope SR proteins clone 1H4 (Millipore cat. no. MABE50) diluted 1:5000, and rabbit anti-GAPDH clone 14C10 (Cell Signaling cat. no. 2118S) to control for equal protein loading, diluted 1:2000. HRP-conjugated secondary antibodies were incubated one hour at room temperature diluted 1:5000 in TBS-0.1% Tween-20 buffer containing […] nonfat-dried bovine milk (Sigma cat. no. M7409). The following secondary antibodies were used: Goat anti-mouse-HRP (Jackson cat. no. 115-035-146) and goat anti-rabbit-HRP (Jackson cat. no. 111-035-144). Membranes were incubated with ECL Prime Western Blot Detection Reagent (Amersham cat. no. RPN2236) to detect specific signals using Fusion SOLO S device (Vilber Lourmat). Pixel intensity of the phopsho-SRSF6 (MW 55 kDa in reference to markers) and GAPDH (MW 37 kDa) signals in the Western blots were determined using Evolution-Capt image analysis software (v17.01, Vilber Lourmat). DMSO control was used to set the phospho-SRSF6 signal at baseline, phospho-SRSF6 signals for each sample were normalized by the respective GAPDH signals and percent intensity of P—SRSF6 signal at 10 and 100 nM compound compared to DMSO control was calculated (see FIG. 1).

T1 sequence (P49761 whole entry): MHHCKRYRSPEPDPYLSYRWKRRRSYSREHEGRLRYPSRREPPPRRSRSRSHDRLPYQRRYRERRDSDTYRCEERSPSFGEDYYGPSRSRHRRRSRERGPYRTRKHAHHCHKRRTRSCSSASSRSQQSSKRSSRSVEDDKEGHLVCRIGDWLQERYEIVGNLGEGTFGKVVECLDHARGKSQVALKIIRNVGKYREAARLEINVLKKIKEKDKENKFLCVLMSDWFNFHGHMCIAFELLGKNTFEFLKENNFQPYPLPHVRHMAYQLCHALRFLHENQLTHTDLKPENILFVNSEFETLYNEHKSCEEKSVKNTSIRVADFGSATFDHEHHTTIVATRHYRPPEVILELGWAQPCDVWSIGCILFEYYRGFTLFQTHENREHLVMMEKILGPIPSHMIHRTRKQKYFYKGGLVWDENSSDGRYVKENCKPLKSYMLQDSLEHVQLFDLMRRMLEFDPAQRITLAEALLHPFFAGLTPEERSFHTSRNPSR

`COCCN(C)c1c(O[C@H]2CC[C@H](N)CC2)ccc2c1CC(C)(C)c1c(N)ncnc1-2` [Example 13, 8-(trans-4-aminocyclohexoxy)-N7-(2-methoxyethyl)-N7,5,5-trimethyl-6H-benzo[h]quinazoline-4,7-diamine]: the IC50 in assay [1] was in the range of 30 to 100 nM. Moreover, the inhibition at 0.01 µM in assay [2] (10 nM, read-out: >50% p-SRSF6 reduction at 10 nM) was under 50%. The inhibition at 0.1 µM in assay [2] (100 nM, read-out: >50% p-SRSF6 reduction at 100 nM) was over 50%.
